This note sets out measurements from patent US8541377B2, “Optimized dengue virus entry inhibitory peptide (DN81)” (Florida Gulf Coast University, priority 2007, dated 2013).

The data set concerns LLCMK-2 cells. To be noted: confluent LLCMK-2 monolayers; concentration ranges that showed viral inhibition; vs medium only controls, p>0.05; FIG. 4. Here is the method: The cytotoxicity of the chemistries was measured by monitoring mitochondrial reductase activity using the TACS™ MTT cell proliferation assay (R&D Systems, Inc., Minneapolis, Minn.) according to the manufacturer's instructions. Dilutions of chemistries in serum-free DMEM were added to confluent monolayers of LLCMK-2 cells in 96-well plates for 1 h at 37° C., similar to the focus forming inhibition assays, and subsequently incubated at 37° C. with 5% (v/v) CO2 for 24 h. Absorbance at 560 nm was measured using a Tecan GeniosPro plate reader (Tecan US, Durham, N.C.).

Residues, ends and D or L forms follow the SMILES beside them.

As to `CSCC[C@H](NC(=O)[C@H](Cc1c[nH]c2ccccc12)NC(=O)[C@@H](N)CCCNC(=N)N)C(=O)N[C@H](C(=O)N[C@@H](Cc1c[nH]c2ccccc12)C(=O)N[C@@H](CCCNC(=N)N)C(=O)N[C@@H](Cc1c[nH]cn1)C(=O)N[C@@H](Cc1c[nH]c2ccccc12)C(=O)N[C@@H](Cc1ccccc1)C(=O)N[C@@H](Cc1c[nH]cn1)C(=O)N[C@@H](CCCNC(=N)N)C(=O)N[C@@H](CC(C)C)C(=O)N[C@@H](CCCNC(=N)N)C(=O)N[C@@H](CC(C)C)C(=O)N1CCC[C@H]1C(=O)N[C@@H](Cc1ccc(O)cc1)C(=O)N[C@@H](CC(N)=O)C(=O)N1CCC[C@H]1C(=O)NCC(=O)N[C@@H](CCCCN)C(=O)N[C@@H](CC(N)=O)C(=O)N[C@@H](CCCCN)C(=O)N[C@@H](CCC(N)=O)C(=O)N[C@@H](CC(N)=O)C(=O)N[C@@H](CCC(N)=O)C(=O)N[C@@H](CCC(N)=O)C(=O)N[C@@H](Cc1c[nH]c2ccccc12)C(=O)N1CCC[C@H]1C(=O)O)C(C)C` [DN81] (H-RWMVWRHWFHRLRLPYNPGKNKQNQQWP-OH), the “toxicity (mitochondrial reductase activity of target cells)” value is recorded as “not due to toxicity”.
